Data set [1] in a line: Pharmacokinetics of Compounds 27, 40, 22 and 41 in ICR mice in different modes of administration. Type of data set: in vivo. The note with it: for AUC(0-t) / Cmax / half-life: ICR. From the text: WinNonlin® 6.4 was used as the calculation software for PK parameters.
For a further data set, the target named is T1, adenosine receptors A2A (Homo sapiens, UniProt P29274).
T1 construct: expressed in transfected cells; host or cells: HEK293 (hADORA2A-HEK293)
As to the kind of experiment: TR-FRET-based cAMP accumulation assay in hADORA2A-HEK293 cells. Type of data set: cell-based. To be noted: NECA at EC80, hADORA2A-HEK293, read-out: A2AR activity (IC50). On the procedure:
The inhibitory effects of the test compounds on the adenosine receptors A2A were evaluated by TR-FRET-based cAMP accumulation assay. The method included, in HEK293 cells (hADORA2A-HEK293) expressing A2AR, the production of cAMP stimulated by NECA and the inhibitory effect of A2A receptor antagonists on cAMP. All cells were cultured in a complete medium at 37° C. in the presence of 5% CO2. After being digested with trypsin, the cells were collected by centrifugation at 200 g for 5 minutes. The cells were resuspended in a fresh complete medium, and then the cell viability was counted by a trypan blue exclusion method. […] The cells were diluted with Hank's buffer solution containing HEPES (5 mM), BSA stabilizer (0.1%) and Rolipram (10 μM), then added to a 384-well white non-transparent plate (cells/well, 10 μl/well), and incubated with the test compound at an appropriate concentration (11 concentrations) for 20 minutes at room temperature. Then, the A2A receptor agonist NECA (final concentration=EC80, which was determined in the same experiment performed earlier) was added to the sample, and the sample was incubated again at 37° C. for 30 minutes.
An inhibition rate (%) was calculated according to the following formula, and an IC50 value was calculated from a concentration-inhibition (%) curve after log conversion.
A curve corresponding to the dose was fitted by using XLfit software and the IC50 was determined.
(In general: In TR-FRET formats the signal depends on donor and acceptor labels being close together.)

Data set [2] in a line: Pharmacokinetics of test compounds in SD rats (15.2; IV and PO, mixed administration). To be noted: male, Sprague-Dawley, rat, plasma, SD rats, PO; for AUC(0-t): 2 mg/kg, mixed administration (6 compounds per group). Type of data set: in vivo. How it is done: Administration dose: the compounds in this group were all administered in a mixed way, with 6 compounds in each group for mixed PO administration.
Blood was collected based on the blood collection points in the test protocol. 50 μL of plasma sample was added with acetonitrile (containing 5 ng/mL Verapamil) being 3 folds of the volume thereof; the resulting mixture was vortexed for 30 s, and then centrifuged for 15 min at 15,000 rpm at 4° C.; and 10μ L of supernatant was taken for LC-MS/MS analysis.
For each compound, 3 male SD rats weighing 200-220 g were fasted for one night before dosage, but had access to water.
Orally intragastric administration: before intragastric administration and at 0.083 h, 0.25 h, 0.5 h, 1 h, 2 h, 4 h, 8 h and 24 h after administration (for Compounds 40, 27, 40 and 47), or at 0.25 h, 0.5 h, 1 h, 4 h, 6 h and 8 h after administration (for Compounds 44 and 48), orbital blood was collected and put in a test tube that was treated with heparin sodium, and after centrifugation, the supernatant plasma was collected for LC-MS/MS analysis.
The plasma samples were processed according to the method for “sample treatment” and then analyzed by LC-MS/MS, accompanied with the standard curve and quality control samples. At a time point when the upper limit of quantification was exceeded, the samples were diluted 10 or 100 folds for analysis. All measured data were collected and processed by Analyst 1.6.3 software, and the data were calculated and processed with Microsoft Excel. With DAS 3.2.8 software, the pharmacokinetic parameters were calculated by the statistical moment method. The pharmacokinetic parameters mainly include Tmax, t1/2, Cmax, AUC(0-t), etc.

Experiment in data set [3]: as above
The note with it: PO, 3 mg/kg. Type of data set: in vivo.

The mark [4] stands for this setting: male, Sprague-Dawley, rat, plasma.

Molecules are shown by their SMILES. pIC50: −log10 of the molar value.

T1 sequence (P29274 whole entry): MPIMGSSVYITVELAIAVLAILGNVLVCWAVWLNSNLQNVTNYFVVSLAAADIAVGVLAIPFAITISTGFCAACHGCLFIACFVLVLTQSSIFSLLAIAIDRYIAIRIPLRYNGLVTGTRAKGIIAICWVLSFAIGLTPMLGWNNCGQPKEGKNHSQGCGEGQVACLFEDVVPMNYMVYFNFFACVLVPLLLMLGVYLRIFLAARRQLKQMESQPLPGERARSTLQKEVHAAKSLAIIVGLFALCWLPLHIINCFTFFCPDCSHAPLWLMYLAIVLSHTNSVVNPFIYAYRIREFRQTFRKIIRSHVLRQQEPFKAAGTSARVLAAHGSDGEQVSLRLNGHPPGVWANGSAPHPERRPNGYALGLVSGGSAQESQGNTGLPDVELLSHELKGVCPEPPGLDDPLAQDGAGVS

For orientation: AUC(0-t) means the area under the concentration-time curve up to a stated or last time point. Read a low AUC(0-t) as less exposure. Broadly, the Cmax is the maximum level reached in the sampled fluid or tissue. The term pIC50 denotes the IC50 on a negative log10 scale, so that one unit is a factor of ten. In data set [1] (mouse, in vivo, iv, 1 mg/kg), `CCn1nnc(-c2ccc(CCNc3nc(N)n4nc(-c5ccco5)nc4n3)cc2)n1` [Compound 41, N5-(4-(2-ethyl-2H-tetrazol-5-yl)phenethyl)-2-(furan-2-yl)-[1,2,4]triazolo[1,5-a][1,3,5]triazine-5,7-diamine] gave an AUC(0-t) of 1110 ng·h/mL, a Cmax of 2230 ng/mL and a half-life of 0.28 h. In addition, in data set [1] (mouse, in vivo, po, 5 mg/kg), the AUC(0-t) was determined as 1800 ng·h/mL, the peak level (Cmax) was 1300 ng/mL and the half-life is 1.85 h. In data set [1] (PO, 5 mg/kg), the “Cl—F—pred” value was 48.7 mL/min/kg and the F came to 32.51%. Moreover, in data set [1] (mouse, in vivo, IV, 1 mg/kg, read-out: Cl—pred (converted)), the clearance is 15.2 mL/min/kg. In addition, the pIC50 on adenosine receptors A2A was 8.10. The molecule also gave an AUC(0-t) in data set [2] of 1890 ng·h/mL.

For `COCCn1nnc(-c2ccc(CCNc3nc(N)n4nc(-c5ccco5)nc4n3)cc2)n1` [Compound 47, N5-(4-(2-(2-methoxyethyl)-2H-tetrazol-5-yl)phenethyl)-2-(furan-2-yl)-[1,2,4]triazolo[1,5-a][1,3,5]triazine-5,7-diamine], at adenosine receptors A2A, the pIC50 is 7.86. In addition, the AUC(0-t) in data set [2] came out at 779 ng·h/mL; in data set [3] (setting [4]), 1500 ng·h/mL. The half-life in data set [2] (3 mg/kg, read-out: T½ (converted)) is 2.25 h. In data set [3], this molecule registered a Cl_F_pred of 23.1623 mL/min/kg. The Cmax in data set [3] (setting [4]) came out at 538 ng/mL.

The record behind these values is US20230048888A1, “USE OF TRIAZOLOTRIAZINE DERIVATIVE IN TREATMENT OF DISEASES” (ZHEJIANG VIMGREEN PHARMACEUTICALS, LTD., priority 2019, published 2023).
